{
  "source": "patent US6319929A",
  "about": "“Suksdorfin analogs, compositions thereof, and methods for making and using thereof” (priority 1998, dated 2001)",
  "key": {"uninfected H9 cells": {"system": "uninfected H9 cells", "experiment": "Toxicity to uninfected H9 cells (cell growth)", "type": "cell-based", "conditions": "Homo sapiens", "outline": "(§1)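 H9 T cells exposed to HIV-1 IIIB (0.01-0.1 TCID50/cell) for 1 h at 37° C, washed, then grown with compound for 3-4 days at 37° C. Toxicity taken from cell counts of uninfected cultures and virus from p24 ELISA of supernatants. EC50 and IC50 were read graphically from concentration versus percent inhibition plots.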"}, "[1]": {"system": "HIV-1 replication in H9 cells", "experiment": "HIV-1 replication inhibition in acutely infected H9 lymphocytes (p24 antigen ELISA)", "type": "cell-based, HIV-1 (IIIB strain)", "conditions": "for anti-HIV activity in H9 cells (in words): acutely infected H9 cells", "outline": "as §1"}, "[2]": {"system": "HIV-1 replication in U937 cells", "experiment": "HIV-1 replication in acutely infected promonocytic U937 cells", "type": "cell-based, HIV-1 (IIIB)", "conditions": "for EC50: Human immunodeficiency virus 1, U-937", "description": "Suksdorfin was also tested on an acute HIV-1 infection of the promonocytic cell line, U937. This was done again to determine drug specificity but this time on a monocytic cell line.\nAs part of efforts to biologically characterize 16 the monocytic cell line, U937 and peripheral blood mononuclear cells (PBMCs) were separately infected with HIV-1 and then had various concentrations of the analog added for 4 days of culture.\nHIV Growth Inhibition Assay: The T cell line, H9, and the promonocytic cell line, U937, were maintained separately in continuous culture with complete medium (RPMI 1640 and […] fetal calf serum (FCS) at 5% CO2 and 37° C. Cell lines were used in experiments only when in log phase of growth; whereas, uninfected peripheral blood mononuclear cells (PBMCs) were first stimulated with PHA (1 μg/ml) for 3 days. All cell targets were incubated with HIV-1 (IIIB isolate, TCID50 10 ^4 IU/mi, at a multiplicity of infection of 0.1-0.01 IU/cell) for 1 hour at 37° C. and 5% CO2. The cell lines and PBMCs were washed thoroughly to remove unabsorbed virions and resuspended at 4×10^5 cells/ml in complete medium or complete medium with 10% v/v interleukin […] IL-2, respectively. Aliquots ( ml) were placed in wells of 24-well culture plates containing an equal volume of test compound (diluted in the appropriate culture medium). After incubation for 4 days at 37° C., cell density of uninfected cultures was determined by counting cells in a Coulter counter to assess toxicity of the test compound. A p24 antigen ELISA assay was used to determine the level of virus released in the medium of the HIV-infected cultures. The p24 antigen assay uses a HIV-1 anti-p24 specific monoclonal antibody as the capture antibody coated-on 96-well plates. Following a sample incubation period, rabbit serum containing antibodies for HIV-1 p24 is used to tag any p24 \"captured\" onto the microtiter well surface. Peroxidase conjugated goat anti-rabbit serum is then used to tag HIV-1 p24 specific rabbit antibodies which have complexed with captured p24. […] The cut-off for the p24 ELISA assay is 12. pg/ml. P24 in the culture medium was quantitated against a standard curve containing known amounts of p24. The effective (EC50) and inhibitory (IC50) concentrations (for anti-HIV activity and cytotoxicity, respectively) were determined graphically. Both the EC50 and IC50 values were calculated by plotting drug concentration versus percent inhibition, and then identifying a 50% inhibition value from the graph."}, "[3]": {"system": "chronically HIV-1 infected ACH-2 cells", "experiment": "Virus expression from chronically HIV-1 infected T cell line ACH-2 (p24 antigen ELISA)", "type": "cell-based", "conditions": "for effect on virus expression of PMA-stimulated ACH-2 cells (in words): with PMA; for induction of virus expression from ACH-2 cells (in words): without PMA", "description": "(§2) Effects of suksdorfin analogs on Chronically HIV-1 infected cells. The experimental design is as follows: The phorbol ester, PMA (10^-8 M) and various concentrations of suksdorfin were either added or not added to both the chronically HIV-1 infected T cell line (ACH-2) and to the chronically HIV-1 infected monocytic cell line (U1). Cell-free supernatant was collected 72 hours post culture for p24 antigen ELISA.\nResults (Table 11) from adding compound 16 to the chronically HIV-infected T cell line, ACH-2, according to methods in above examples. ACH-2 are a chronically HIV-1 infected T cell line. It was derived from A3.01 cells which is a subclone of the CEM cell line. The data below indicates the following points:\n(§3) Chronically HIV-1 infected cell lines. HIV-1 chronically infected T cell line, ACH-2^12, and HIV-1 chronically infected promonocytic cell line, U1 13, were continuously maintained in RPMI 1640 with 10% fetal calf serum (FCS). For experiments, the cell lines were only used in the […] of growth. Cells (0.5×10^6 cells/well) and either various concentrations of suksdorfin or medium alone were added to 24-well plates in the presence or absence of PMA (10^-8 M). After 72 hours at 37° C. and 5% CO2, an aliquot of the cell-free supernatants were collected and analyzed for p24 antigen by ELISA (see below for details of p24 antigen ELISA)."}, "[4]": {"system": "chronically HIV-1 infected U1 cells", "experiment": "Virus expression from chronically HIV-1 infected monocytic cell line U1 (p24 antigen ELISA)", "type": "cell-based", "conditions": "for effect on virus expression of PMA-stimulated U1 cells (in words): with PMA; for induction of virus expression from U1 cells (in words): without PMA", "description": "as §2\nCompound 16 was also assayed on ACH-2 (chronically HIV-1 infected T cell line). U1 cells are also chronically HIV-1 infected cells but they are from the monocytic cell line, U937. The data presented in Table 8 indicates the following points:\nas §3"}},
  "note": "Where two headings read alike, the source gives them in different places.",
  "data": [
    {"smiles": "CC(=O)O[C@@H]1[C@H](OC(=O)CC(C)C)c2c(ccc3ccc(=O)oc23)OC1(C)C", "note": "[Suksdorfin, suksdorfin]", "values": [
      {"measurement": "IC50", "setting": "uninfected H9 cells; H9, Table 14, concentration which inhibits uninfected cell growth by 50%, read-out: IC50 (μM)^a", "value": "> 52", "unit": "µM"},
      {"measurement": "IC50", "setting": "uninfected H9 cells; H9, Table 17, uninfected H9 cell growth, read-out: IC50", "value": "> 52", "unit": "µM"},
      {"measurement": "IC50", "setting": "uninfected H9 cells; H9, concentration which inhibits uninfected cell growth by 50%, read-out: IC50", "value": "> 52", "unit": "µM"},
      {"measurement": "EC50", "setting": "[1]; Human immunodeficiency virus 1, H9, Table 17, acutely infected H9 lymphocytes, read-out: EC50", "value": 1300, "unit": "nM"},
      {"measurement": "EC50", "setting": "[1]; Human immunodeficiency virus 1, H9, acutely infected H9 cells, concentration which inhibits viral replication by 50%, Inactive = No suppression of HIV-1 replication in H9 cells, read-out: EC50", "value": 1300, "unit": "nM"},
      {"measurement": "EC50", "setting": "[1]; Human immunodeficiency virus 1, H9, earlier value, read-out: EC50 (value before increase)", "value": "0.5 to 0.8", "unit": "µg/mL"},
      {"measurement": "IC50", "setting": "[1]; Human immunodeficiency virus 1, Table 14, concentration which inhibits viral replication by 50%, Inactive = No suppression of HIV-1 replication in H9 cells, read-out: IC50 (μM)^b", "value": 1.3, "unit": "µM"},
      {"measurement": "Therapeutic Index", "setting": "[1]; IC50 for cell growth inhibition divided by EC50 for HIV inhibition, H9", "value": "> 40"},
      {"measurement": "Therapeutic Index", "setting": "[1]; Table 14", "value": "> 40.0"},
      {"measurement": "Therapeutic Index", "setting": "[1]; Table 17, H9", "value": "> 40"},
      {"measurement": "anti-HIV activity in H9 cells (in words)", "setting": "[1]", "value": "suppressed virus replication"},
      {"measurement": "anti-HIV activity in H9 cells (in words)", "setting": "[1]; listed as 1", "value": "potent anti-HIV-1 activity at nontoxic concentrations"},
      {"measurement": "EC50", "setting": "[2]; U937 cell line", "value": 0.58, "unit": "µg/mL"},
      {"measurement": "EC50", "setting": "[2]; U937 cells", "value": 1500, "unit": "nM"},
      {"measurement": "Therapeutic Index", "setting": "[2]; U937 cell line, 5760 min", "value": "> 34.5"},
      {"measurement": "suppression of acute HIV-1 replication in U937 cells (in words)", "setting": "[2]; U937 cells", "value": "can suppress an acute HIV-1 replication"},
      {"measurement": "EC50 from U937 cells relative to that for PBMCs", "setting": "[2]; U937 versus PBMCs", "value": "approximately one third"},
      {"measurement": "P24", "setting": "[3]; ACH-2, +PMA, 0.16 μg/ml", "value": "50,775 pg/ml"},
      {"measurement": "P24", "setting": "[3]; ACH-2, +PMA, 0.8 μg/ml", "value": "55,910 pg/ml"},
      {"measurement": "P24", "setting": "[3]; ACH-2, +PMA, 4 μg/ml", "value": "61,235 pg/ml"},
      {"measurement": "P24", "setting": "[3]; ACH-2, +PMA, 20 μg/ml", "value": "49,914 pg/ml"},
      {"measurement": "P24", "setting": "[3]; ACH-2, -PMA, 0.16 μg/ml", "value": "3,688 pg/ml"},
      {"measurement": "P24", "setting": "[3]; ACH-2, -PMA, 0.8 μg/ml", "value": "3,821 pg/ml"},
      {"measurement": "P24", "setting": "[3]; ACH-2, -PMA, 4 μg/ml", "value": "4,723 pg/ml"},
      {"measurement": "P24", "setting": "[3]; ACH-2, -PMA, 20 μg/ml", "value": "4,541 pg/ml"},
      {"measurement": "effect on virus expression of PMA-stimulated ACH-2 cells (in words)", "setting": "[3]", "value": "no significant alteration in the level of virus expression"},
      {"measurement": "effect on virus expression of PMA-stimulated ACH-2 cells (in words)", "setting": "[3]; listed as 1", "value": "no alteration in the level of virus expression"},
      {"measurement": "induction of virus expression from ACH-2 cells (in words)", "setting": "[3]", "value": "The answer is no"},
      {"measurement": "induction of virus expression from ACH-2 cells (in words)", "setting": "[3]; listed as 1", "value": "no increase in the induction of virus expression"},
      {"measurement": "P24", "setting": "[4]; U1, +PMA, 0.16 μg/ml", "value": "6,611 pg/ml"},
      {"measurement": "P24", "setting": "[4]; U1, +PMA, 0.8 μg/ml", "value": "7,360 pg/ml"},
      {"measurement": "P24", "setting": "[4]; U1, +PMA, 4 μg/ml", "value": "9,728 pg/ml"},
      {"measurement": "P24", "setting": "[4]; U1, +PMA, 20 μg/ml", "value": "5,096 pg/ml"},
      {"measurement": "P24", "setting": "[4]; U1, -PMA, 0.16 μg/ml", "value": 0, "unit": "pg/mL"},
      {"measurement": "P24", "setting": "[4]; U1, -PMA, 0.8 μg/ml", "value": 0, "unit": "pg/mL"},
      {"measurement": "P24", "setting": "[4]; U1, -PMA, 4 μg/ml", "value": 0, "unit": "pg/mL"},
      {"measurement": "P24", "setting": "[4]; U1, -PMA, 20 μg/ml", "value": 0, "unit": "pg/mL"},
      {"measurement": "effect on virus expression of PMA-stimulated U1 cells (in words)", "setting": "[4]", "value": "no significant alteration in the level of virus expression"},
      {"measurement": "effect on virus expression of PMA-stimulated U1 cells (in words)", "setting": "[4]; listed as 1", "value": "no alteration in the level of virus expression"},
      {"measurement": "induction of virus expression from U1 cells (in words)", "setting": "[4]", "value": "The answer is no"},
      {"measurement": "induction of virus expression from U1 cells (in words)", "setting": "[4]; listed as 1", "value": "no increase in the induction of virus expression"}
    ]}
  ]
}
